Legend:
human h-PGDS = human h-PGDS (Homo sapiens, UniProt O60760); assay: Enzyme Immunoassay (EIA) method, inhibition of hematopoietic PGD2 synthase; assay type: biochemical; details: EIA assay, PGD2 formed from PGH2 by human h-PGDS
Procedure: Assay 2: Enzyme Immunoassay (EIA) Method
• a. Preparation of 0.1M K2HPO4/KH2PO4 buffer (pH 7.4) • Prepare 0.1 M KH2PO4 from 1M KH2PO4 (Sigma, Cat# P-8709) • Prepare 0.1 M K2HPO4 from powder of K2HPO4 (Fisher, BP363-500) • Mix 0.1 M K2HPO4 with 0.1 M KH2PO4 to adjust pH to 7.4. • b. Preparation of 0.5% γ-globulin • Add 0.1 g of γ-globulin (Sigma, Cat# G-5009) to 20 mL 0.1 M K2HPO4/KH2PO4 buffer (pH 7.4) and make 1-mL/vial aliquots and store in −80° C. • c. Preparation of 100 mM GSH • Add 307 mg of GSH (Sigma, Cat# G-6529) to 10 mL 0.1 M K2HPO4/KH2PO4 buffer (pH 7.4) and store at −80° C. • d. Preparation of Reaction buffer: • 198 mL of 0.1M K2HPO4/KH2PO4 buffer (pH 7.4) • 2 mM GSH—Prepared from 100 mM GSH • 0.4 g Glycerol • 2 mL of 0.5% γ-globulin • Add 0.4 g of glycerol and 2 mL of 0.5% γ-globulin to 198 mL of 0.1 M K2HPO4/KH2PO4 • buffer (pH7.4). • Add 0.4 mL of 100 mM GSH to 19.6 mL reaction buffer before the assay (enough for two 96-well plates). • e. Preparation of FeCl2/citric acid stopping solution: (8 mg/mL FeCl2, 0.1 M citric acid) • Add 40 mg fresh FeCl2 (IGN, Cat# 158046) to 5 mL 0.1 M citric acid (Sigma, Cat# C0759). • f. Preparation of MOX reagent: • 10% EtOH—Add 1 mL of EtOH to 9 mL of ultra pure H2O • Dissolve 0.1 g of methoxyl amine (Cayman, Cat# 400036/) in 10% EtOH (10 mL). • Add 0.82 g of sodium acetate (Cayman, Cat#400037) to MOX solution and dissolve. II. Materials and Method • Dimethylsulfoxide (DMSO; Sigma; Cat# D2650) • Prostaglandin D2-MOX express EIA kit (Caymen Chemical, Catalog No. 500151)
Before the assay, cool down 10 mL of acetone in polypropylene tubes and empty 96 well plates in ice. All the procedures except compound dilution are performed on ice.
• 1. Dilute compound in DMSO
• 2. Dilute 2 μL of each above concentration of compound to 38 μL of reaction buffer in 96-well plates and mix. IV. Enzyme and Substrate Solution Preparation • 1 Preparation of 0.39 ng/μL enzyme solution (0.35 ng/μL at final after compound addition). • Mix 4 μL of 4 mg/mL human h-PGDS with 396 μL of reaction buffer (to give enzyme concentration 40 μg/mL). Add 46.8 μL of 40 μg/mL h-PGDS to 4.753 mL of reaction buffer to give a total volume of 4.8 mL • 2. Preparation of Substrate Solution (PGH2): Add 0.375 mL of 0.1 mg/mL of PGH2 to 1.625 mL acetone. V. Enzyme Reaction: • 1. Add 60 μL of enzyme solution to compound well and positive control (without compound) in U-bottom polypropylene plate on ice. • 2. Add 60 μL of reaction buffer and 6.6 μL of 5% DMSO in reaction buffer into negative control wells in the plate. • 3. Add 6.6 μL of diluted compound in reaction buffer to the compound wells and mix. • 4. Add 6.6 μL of 5% DMSO in reaction buffer to the positive control well. • 5. Incubate the plate in ice for at least 30 min. • 6. Add 20 μL of substrate (PGH2) solution to compound, negative and positive control wells in the U-bottom 96 well plate on ice. • 7. Dry the plate in cold room for about 25-28 min. • 8. Pipette 45 μL of enzyme solution (above) into 96-wells with dried PGH2 and mix 3 times. Incubate on the ice for 1 min. • 9. Add 45 μL of FeCl2 solution into each wells and mix. • 10. Add 90 μL of MOX solution and mix. • 11. Incubate for 30 min at 60° C. • 12. Dilute the samples 2500× with EIA buffer. VI. EIA Assay • Perform the assay according to the procedure in EIA kit provided by Cayman. Total PGD2 levels (pg/mL) were determined in the samples by EIA kits (Caymen Chemical, Catalog No. 500151) Calculate Amount of PGD2 as Below • Calculated % Positive control according to the equation below; % Positive control=(Compound value−Negative control)/(Positive value−Negative control value)×100. […]

PGDS = details: cited from earlier work
guinea pig = guinea pig model; cited from earlier work
rat = rat model; cited from earlier work

Sequence of human h-PGDS (O60760 whole entry): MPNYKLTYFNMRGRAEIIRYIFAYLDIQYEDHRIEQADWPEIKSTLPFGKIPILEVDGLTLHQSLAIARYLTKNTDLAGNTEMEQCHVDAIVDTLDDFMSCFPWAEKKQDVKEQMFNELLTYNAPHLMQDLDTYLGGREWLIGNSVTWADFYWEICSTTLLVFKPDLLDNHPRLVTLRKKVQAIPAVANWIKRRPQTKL

Compound | IC50 (human h-PGDS) | further results
Cc1cn(NC(=O)c2cnc(-c3ccccn3)nc2C(F)(F)F)c2ccc(F)cc12 [Example 209, 2-Pyridin-2-yl-4-trifluoromethyl-pyrimidine-5-carboxylic acid (5-fluoro-3-methyl-indol-1-yl)-amide] | 8 nM | –
O=C(NN1CCOc2ccc(F)cc21)c1cnc(-c2cccc(F)c2)nc1 [Example 211, 2-(3-Fluoro-phenyl)-pyrimidine-5-carboxylic acid (6-fluoro-2,3-dihydro-1,4-benzoxazin-4-yl)-amide] | 12 nM | –
O=C(NN1CCOc2ccc(F)cc21)c1cnc(-c2ccccc2)nc1 [Example 212, 2-Phenyl-pyrimidine-5-carboxylic acid (6-fluoro-2,3-dihydro-1,4-benzoxazin-4-yl)-amide] | 21 nM | –
c1ccc(C(OC2CCN(CCCc3nn[nH]n3)CC2)c2ccccc2)cc1 [HQL-79] | – | PGDS inhibition (PGDS): weak PGDS inhibitor; antiasthmatic effect (guinea pig): antiasthmatic; antiasthmatic effect (rat): antiasthmatic

Second part, led by results:

IC50 (human h-PGDS) | Compound | further results
851 nM | Cc1nc(-c2cccc[n+]2[O-])ncc1C(=O)Nn1cc(C)c2cc(F)ccc21 [Example 225, 4-Methyl-2-(1-oxy-pyridin-2-yl)-pyrimidin-5-carboxylic acid (5-fluoro-3-methyl-indol-1-yl)-amide] | –
17 nM | Cc1cn(NC(=O)c2cnc(-c3cccc(C(F)F)c3)nc2)c2ccc(F)cc12 [Example 226, 2-(3-Difluoromethyl-phenyl)-pyrimidine-5-carboxylic acid (5-fluoro-3-methyl-indol-1-yl)-amide] | –
262 nM | Cc1cn(NC(=O)c2cnc(-c3cccc(C(F)(F)F)c3)nc2)c2ccc(F)cc12 [Example 227, 2-(3-Trifluoromethyl-phenyl)-pyrimidine-5-carboxylic acid (5-fluoro-3-methyl-indol-1-yl)-amide] | –
